Several values for one entry are separate records, joined by “and”; a condition that tells them apart may be missing. Equal entries are not always repeated. Results filed as inconclusive are left out.
System: BDF1 mice, s.c. Lewis lung carcinoma, T/C %
Assay: NCI In Vivo Anticancer Drug Screen. Data for tumor model Lewis Lung Carcinoma (subcutaneous) in B6D2F1 (BDF1) mice
Outline: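 Tumor-bearing mice were treated with test compound, and either survival or tumor size was recorded. Values are the treated-group measurement divided by that of the vehicle-treated control group.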

## N#C/C(=C\c1ccncc1)c1csc2ccccc12
endpoint: median survival time, dose: 50.0 mg/kg/injection, schedule: Q01DX009 (ip), vehicle: Klucel (hydroxypropylcellulose) (HPC), higher = longer survival
  T/C: 119 % of control
endpoint: median survival time, dose: 100.0 mg/kg/injection, schedule: Q01DX009 (ip), vehicle: Klucel (hydroxypropylcellulose) (HPC), higher = longer survival
  T/C: 97 % of control
endpoint: median survival time, dose: 400.0 mg/kg/injection, schedule: Q01DX009 (ip), vehicle: Klucel (hydroxypropylcellulose) (HPC), higher = longer survival
  T/C: 110 % of control

## CC(C)C(=O)[O][Sn]([c]1ccccc1)([c]1ccccc1)[c]1ccccc1
endpoint: median survival time, dose: 3.0 mg/kg/injection, schedule: Q01DX009 (ip), vehicle: saline with Tween-80, higher = longer survival
  T/C: 110 % of control
endpoint: median survival time, dose: 6.0 mg/kg/injection, schedule: Q01DX009 (ip), vehicle: saline with Tween-80, higher = longer survival
  T/C: 106 % of control
endpoint: median survival time, dose: 12.0 mg/kg/injection, schedule: Q01DX009 (ip), vehicle: saline with Tween-80, higher = longer survival
  T/C: 97 % of control

## O=c1[nH]cc(N(CCCl)CCCl)c(=O)[nH]1
endpoint: mean tumor weight, dose: 0.37 mg/kg/injection, schedule: Q01DX011 (ip), vehicle: carboxymethylcellulose (CMC), higher = larger tumour
  T/C: 70 % of control
endpoint: mean tumor weight, dose: 0.57 mg/kg/injection, schedule: Q01DX011 (ip), vehicle: carboxymethylcellulose (CMC), higher = larger tumour
  T/C: 59 % of control
endpoint: mean tumor weight, dose: 0.85 mg/kg/injection, schedule: Q01DX011 (ip), vehicle: carboxymethylcellulose (CMC), higher = larger tumour
  T/C: 38 % of control

## CN1C(=O)C=CC1=O
endpoint: median survival time, dose: 0.5 mg/kg/injection, schedule: Q02DX009 (ip), vehicle: saline, higher = longer survival
  T/C: 113 % of control
endpoint: median survival time, dose: 1.0 mg/kg/injection, schedule: Q02DX009 (ip), vehicle: saline, higher = longer survival
  T/C: 103 % of control
endpoint: median survival time, dose: 2.0 mg/kg/injection, schedule: Q02DX009 (ip), vehicle: saline, higher = longer survival
  T/C: 100 % of control
endpoint: median survival time, dose: 4.0 mg/kg/injection, schedule: Q02DX009 (ip), vehicle: saline, higher = longer survival
  T/C: 94 % of control

## FCCNC1CCCCC1
endpoint: mean tumor weight, dose: 1.5 mg/kg/injection, schedule: Q01DX011 (ip), vehicle: carboxymethylcellulose (CMC), higher = larger tumour
  T/C: 99 % of control
endpoint: mean tumor weight, dose: 5.0 mg/kg/injection, schedule: Q01DX011 (ip), vehicle: carboxymethylcellulose (CMC), higher = larger tumour
  T/C: 89 % of control
endpoint: mean tumor weight, dose: 7.5 mg/kg/injection, schedule: Q01DX011 (ip), vehicle: carboxymethylcellulose (CMC), higher = larger tumour
  T/C: 68 % of control

## COc1ccc(-c2c(CC(=O)O)c3cc(OC)ccc3n2Cc2ccc(Cl)cc2)cc1
endpoint: mean tumor weight, dose: 222.0 mg/kg/injection, schedule: Q01DX011 (ip), vehicle: other, higher = larger tumour
  T/C: 164 % of control
endpoint: mean tumor weight, dose: 333.0 mg/kg/injection, schedule: Q01DX011 (ip), vehicle: other, higher = larger tumour
  T/C: 151 % of control

## C[C@]12CCC(=O)C=C1CC[C@@H]1[C@@H]2C(=O)C[C@@]2(C)[C@H]1CC[C@]2(O)C(=O)CO
endpoint: mean tumor weight, dose: 100.0 mg/kg/injection, schedule: Q01DX011 (ip), vehicle: steriod suspending solution, higher = larger tumour
  T/C: 58 % of control
endpoint: median survival time, dose: 5.0 mg/kg/injection, schedule: Q02DX009 (ip), vehicle: Klucel (hydroxypropylcellulose) (HPC), higher = longer survival
  T/C: 102 % of control
endpoint: median survival time, dose: 10.0 mg/kg/injection, schedule: Q02DX009 (ip), vehicle: Klucel (hydroxypropylcellulose) (HPC), higher = longer survival
  T/C: 102 % of control
endpoint: median survival time, dose: 20.0 mg/kg/injection, schedule: Q02DX009 (ip), vehicle: Klucel (hydroxypropylcellulose) (HPC), higher = longer survival
  T/C: 101 % of control
endpoint: median survival time, dose: 40.0 mg/kg/injection, schedule: Q02DX009 (ip), vehicle: Klucel (hydroxypropylcellulose) (HPC), higher = longer survival
  T/C: 97 % of control and 102 % of control

## CC(C)=CCC/C(C)=C/C=O
endpoint: mean tumor weight, dose: 50.0 mg/kg/injection, schedule: Q01DX010 (ip), vehicle: saline, higher = larger tumour
  T/C: 84 % of control
endpoint: mean tumor weight, dose: 100.0 mg/kg/injection, schedule: Q01DX010 (ip), vehicle: saline, higher = larger tumour
  T/C: 61 % of control

## CS(=O)(=O)c1ccccc1
endpoint: mean tumor weight, dose: 58.0 mg/kg/injection, schedule: Q01DX011 (ip), vehicle: other, higher = larger tumour
  T/C: 99 % of control
endpoint: mean tumor weight, dose: 88.0 mg/kg/injection, schedule: Q01DX011 (ip), vehicle: other, higher = larger tumour
  T/C: 103 % of control
endpoint: mean tumor weight, dose: 133.0 mg/kg/injection, schedule: Q01DX011 (ip), vehicle: other, higher = larger tumour
  T/C: 83 % of control
endpoint: mean tumor weight, dose: 200.0 mg/kg/injection, schedule: Q01DX011 (ip), vehicle: other, higher = larger tumour
  T/C: 79 % of control
endpoint: mean tumor weight, dose: 250.0 mg/kg/injection, schedule: Q01DX011 (ip), vehicle: other, higher = larger tumour
  T/C: 77 % of control
endpoint: mean tumor weight, dose: 500.0 mg/kg/injection, schedule: Q01DX011 (ip), vehicle: other, higher = larger tumour
  T/C: 80 % of control
endpoint: mean tumor weight, dose: 750.0 mg/kg/injection, schedule: Q01DX011 (ip), vehicle: other, higher = larger tumour
  T/C: 76 % of control
endpoint: mean tumor weight, dose: 1000.0 mg/kg/injection, schedule: Q01DX011 (ip), vehicle: other, higher = larger tumour
  T/C: 93 % of control

## CC(=O)Nc1c(Cl)cc2c(c1Cl)Cc1cc([N+](=O)[O-])ccc1-2
endpoint: mean tumor weight, dose: 20.0 mg/kg/injection, schedule: Q01DX011 (ip), vehicle: carboxymethylcellulose (CMC), higher = larger tumour
  T/C: 55 % of control
endpoint: mean tumor weight, dose: 40.0 mg/kg/injection, schedule: Q01DX011 (ip), vehicle: carboxymethylcellulose (CMC), higher = larger tumour
  T/C: 32 % of control

From PubChem BioAssay AID270 (DTP/NCI, 2004)
